Laboratory results taken from patent US7449570B2, “Use of nucleoside compounds for nonsense suppression and the treatment of genetic diseases” (PTC Therapeutics, Inc., priority 2002, dated 2008).

How the values were obtained:
[1] = test system: luciferase reporter construct containing a UGA premature termination codon; assay: cell-based luciferase reporter assay (nonsense suppression); set-up: key: Compounds which were found to have either or both very high potency and very high efficacy of protein synthesis are classified as “***”; Compounds which were found to have significant potency and/or efficacy of protein synthesis were classified as “**”; compounds which were found to have potency and/or efficacy of protein synthesis were classified as “*”; conditions: UGA premature termination codon luciferase reporter stably transfected in 293T Human Embryonic Kidney cells; qualitative potency/efficacy of protein synthesis; gentamicin internal standard
Experimental: Activity measurements in Table 1 were performed in a cell-based luciferase reporter assay (as described in Section 4.2) comprising a luciferase reporter construct containing a UGA premature termination codon that was stably transfected in 293T Human Embryonic Kidney cells. Gentamicin, a small molecule known to allow readthrough of premature termination codons, was used as an internal standard. Activity measurements are based on the qualitative ratio between the minimum concentration of compound required to produce a given protein in a cell versus the amount of protein produced by the cell at that concentration.
The test compounds identified in the nonsense suppression assay (for convenience referred to herein as a compound of the invention) can be tested for biological activity using host cells containing or engineered to contain the target RNA element coupled to a functional readout system. For example, the lead compound can be tested in a host cell engineered to contain the RNA with the premature translation termination codon controlling the expression of a reporter gene. In this example, the lead compounds are assayed in the presence or absence of the RNA with the premature translation termination codon. Compounds that modulate premature translation termination and/or nonsense-mediated mRNA decay in vivo will result in increased expression of the full-length gene, i.e., past the premature termination codon. Alternatively, a phenotypic or physiological readout can be used to assess activity of the target RNA with the premature translation termination codon in the presence and absence of the lead compound. Both the in vitro and in vivo nonsense suppression assays used herein and as described in International Patent Publication WO 01/44516, which is incorporated by reference herein in its entirety, can be used to identify lead compounds and can also be used to determine an EC50 for the lead compounds.
A stable cell line harboring the UGA nonsense-containing luciferase gene is treated with a test compound. Cells are grown in standard medium supplemented with 1% penicillin-streptomycin (P/S) and 10% fetal bovine serum (FBS) to 70% confluency and split 1:1 the day before treatment. The next day, cells are trypsinized and 40,000 cells are added to each well of a 96-well tissue culture dish. Serial dilutions of each compound are prepared to generate a six-point dose response curve spanning 2 logs (30 μM to 0.3 μM). The final concentration of the DMSO solvent remains constant at 1% in each well. Cells treated with 1% DMSO serve as the background standard, and cells treated with gentamicin serve as a positive control.

[2] = test system: lysosomal tripeptidyl-peptidase 1 (TPP-I); conditions: patient-derived LINCL cell line, compound heterozygous for Arg208Stop and a different rare nonsense mutation; Sleat et al. 2001; cited from earlier work

| Compound | Activity [1] | normal levels of TPP-I maximally restored [2] |
| --- | --- | --- |
| Nc1ncnc(N[C@@H]2O[C@H](COC(=O)c3ccccc3)[C@@H](OC(=O)c3ccccc3)[C@H]2OC(=O)c2ccccc2)c1[N+](=O)[O-] [Compound 24, 6-Amino-5-nitro-4-[(2,3,5-tri-O-benzoyl-β-D-ribofuranosyl)amino]pyrimidine] | ** |  |
| gentamicin |  | approximately 7% |
| Nc1ncnc(N[C@H]2C[C@@H](CO)[C@H](O)[C@@H]2O)c1[N+](=O)[O-] [Compound 7, (1S,2R,3S,5S)-3-(6-Amino-5-nitro-pyrimidin-4-ylamino)-5-hydroxymethyl-cyclopentane-1,2-diol] | 0 |  |
| Nc1ncnc(N[C@@H]2C[C@H](CO)[C@@H](O)[C@H]2O)c1[N+](=O)[O-] [Compound 6, (1R,2S,3R,5R)-3-(6-Amino-5-nitro-pyrimidin-4-ylamino)-5-hydroxymethyl-cyclopentane-1,2-diol] | 0 |  |
| COC(=O)c1c(N)ncnc1N[C@H]1O[C@H](CO)[C@@H](O)[C@H]1O [Compound 27, Methyl 6-amino-4-(α-D-ribofuranosylamino)pyrimidine-5-carboxylate] | * |  |
| COC(=O)c1c(Cl)ncnc1N[C@@H]1O[C@H](CO)[C@@H](O)[C@H]1O [Compound 26, Methyl 6-chloro-4-(β-D-ribofuranosylamino)pyrimidine-5-carboxylate] | 0 |  |
| Nc1ncnc(N[C@H]2O[C@H](CO)[C@@H](O)[C@H]2O)c1[N+](=O)[O-] [Compound 22, 6-amino-5-nitro-4-(α-D-ribofuranosylamino)-pyrimidine] | *** |  |
